Source: the NIST ThermoML archive (doi:10.1016/j.jct.2013.07.003)

Key:
[1] = relative permittivity at various frequencies (dimensionless); conditions: 101 kPa, Liquid, Frequency=0.1 MHz, Coaxial cylinder capacitor
[2] = refractive index (Na D-line) (dimensionless); conditions: 101.33 kPa, Liquid, Standard Abbe refractometry
[3] = 298.2 K; 101.33 kPa; Liquid; Vibrating tube method
[4] = refractive index (Na D-line) (dimensionless); xn = mol fraction of the nth substance listed; conditions: 101 kPa, Liquid, Standard Abbe refractometry, x2 = 0
[5] = relative permittivity at various frequencies (dimensionless); xn = mol fraction of the nth substance listed; conditions: 101 kPa, Liquid, Frequency=0.1 MHz, Coaxial cylinder capacitor, x2 = 0

CC(O)CCO (stereo not drawn) [1,3-butanediol]
Conditions | refractive index, 298.2 K | refractive index, 303.2 K | refractive index, 308.2 K | refractive index, 313.2 K | refractive index, 318.2 K | relative permittivity, 298.2 K | relative permittivity, 303.2 K | relative permittivity, 308.2 K | relative permittivity, 313.2 K | relative permittivity, 318.2 K
[1] | – | – | – | – | – | 28.52 | 27.66 | 26.77 | 25.98 | 25.22
[2] | 1.4384 | 1.4371 | 1.4356 | 1.4341 | 1.4328 | – | – | – | – | –

Conditions | mass density [kg/m3]
[3] | 1001.2

C1COCCO1 [1,4-dioxane] + CC(O)CCO
Conditions | refractive index, 298.2 K | refractive index, 303.2 K | refractive index, 308.2 K | refractive index, 313.2 K | refractive index, 318.2 K | relative permittivity, 298.2 K | relative permittivity, 303.2 K | relative permittivity, 308.2 K | relative permittivity, 313.2 K | relative permittivity, 318.2 K
[4] | 1.4201 | 1.4174 | 1.4145 | 1.4118 | 1.4088 | – | – | – | – | –
[5] | – | – | – | – | – | 2.23 | 2.22 | 2.21 | 2.2 | 2.19

CCCCCCCCO [octan-1-ol] + CC(O)CCO
Conditions | refractive index, 298.2 K | refractive index, 303.2 K | refractive index, 308.2 K | refractive index, 313.2 K | refractive index, 318.2 K | relative permittivity, 298.2 K | relative permittivity, 303.2 K | relative permittivity, 308.2 K | relative permittivity, 313.2 K | relative permittivity, 318.2 K
[4] | 1.4276 | 1.4254 | 1.423 | 1.4205 | 1.4184 | – | – | – | – | –
[5] | – | – | – | – | – | 9.81 | 9.38 | 8.94 | 8.52 | 8.11

C1COCCO1 [1,4-dioxane]
Conditions | refractive index, 298.2 K | refractive index, 303.2 K | refractive index, 308.2 K | refractive index, 313.2 K | refractive index, 318.2 K | relative permittivity, 298.2 K | relative permittivity, 303.2 K | relative permittivity, 308.2 K | relative permittivity, 313.2 K | relative permittivity, 318.2 K
[1] | – | – | – | – | – | 2.23 | 2.22 | 2.21 | 2.2 | 2.19
[2] | 1.4201 | 1.4174 | 1.4145 | 1.4118 | 1.4088 | – | – | – | – | –

Conditions | mass density [kg/m3]
[3] | 1027.89

CCCCCCCCO [octan-1-ol]
Conditions | refractive index, 298.2 K | refractive index, 303.2 K | refractive index, 308.2 K | refractive index, 313.2 K | refractive index, 318.2 K | relative permittivity, 298.2 K | relative permittivity, 303.2 K | relative permittivity, 308.2 K | relative permittivity, 313.2 K | relative permittivity, 318.2 K
[1] | – | – | – | – | – | 9.81 | 9.38 | 8.94 | 8.52 | 8.11
[2] | 1.4276 | 1.4254 | 1.423 | 1.4205 | 1.4184 | – | – | – | – | –

Conditions | mass density [kg/m3]
[3] | 821.69
